Activity calls are given as the source filed them.
Experiments:
[1] = biological target: Peroxisome proliferator-activated receptor gamma (Homo sapiens, UniProt P37231); test: PPARg partial agonists, dose response, cell-based, luminescence, assay provider (AID 504447); assay type: functional
[2] = biological target: Dual specificity protein phosphatase 3 (Homo sapiens, UniProt P51452); test: SAR VHR1 Fluorescent Assay for In Vitro dose response studies Set 2. [Related pubchem assays (depositor defined):AID1654, AID1661, AID1878]; assay type: functional
[3] = biological target: T1, Mannose-6-phosphate isomerase (Homo sapiens, UniProt P34949); test: PMI enzyme inhibitors, confirmation, biochemical, fluorescence intensity (AID 1535)
T1 sequence (P34949 whole entry): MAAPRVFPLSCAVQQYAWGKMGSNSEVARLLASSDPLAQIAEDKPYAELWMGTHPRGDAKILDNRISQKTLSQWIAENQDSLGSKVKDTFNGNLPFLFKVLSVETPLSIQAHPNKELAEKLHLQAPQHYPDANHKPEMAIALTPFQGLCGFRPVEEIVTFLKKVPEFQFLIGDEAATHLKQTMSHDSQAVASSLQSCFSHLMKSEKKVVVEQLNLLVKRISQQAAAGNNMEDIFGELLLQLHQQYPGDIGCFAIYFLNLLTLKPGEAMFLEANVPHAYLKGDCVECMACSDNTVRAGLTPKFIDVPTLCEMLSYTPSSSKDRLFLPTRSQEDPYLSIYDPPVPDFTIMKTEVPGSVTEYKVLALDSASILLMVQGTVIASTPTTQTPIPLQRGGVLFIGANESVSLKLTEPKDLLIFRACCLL

[4] = biological target: T2, Phosphomannomutase 2 (Homo sapiens, UniProt O15305); test: Counter screen SAR assay for PMM2 inhibitors via a fluorescence intensity assay. [Related pubchem assays (depositor defined):AID1545, AID1574]
T2 sequence (O15305 whole entry): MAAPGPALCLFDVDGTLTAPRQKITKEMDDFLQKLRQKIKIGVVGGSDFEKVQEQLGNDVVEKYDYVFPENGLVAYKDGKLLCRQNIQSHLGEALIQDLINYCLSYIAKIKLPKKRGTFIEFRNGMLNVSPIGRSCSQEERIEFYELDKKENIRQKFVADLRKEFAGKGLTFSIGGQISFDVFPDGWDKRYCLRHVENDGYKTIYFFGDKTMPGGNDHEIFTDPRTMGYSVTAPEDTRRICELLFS

[5] = biological target: T3, Tyrosine-protein phosphatase non-receptor type 7 (Homo sapiens, UniProt P35236); test: SAR analysis of chemical inhibitors of HePTP using a Fluorescent assay - Set 2. [Related pubchem assays (depositor defined):AID1059, AID1077, AID1661, AID2085, AID521]; assay type: functional
T3 sequence (P35236 whole entry): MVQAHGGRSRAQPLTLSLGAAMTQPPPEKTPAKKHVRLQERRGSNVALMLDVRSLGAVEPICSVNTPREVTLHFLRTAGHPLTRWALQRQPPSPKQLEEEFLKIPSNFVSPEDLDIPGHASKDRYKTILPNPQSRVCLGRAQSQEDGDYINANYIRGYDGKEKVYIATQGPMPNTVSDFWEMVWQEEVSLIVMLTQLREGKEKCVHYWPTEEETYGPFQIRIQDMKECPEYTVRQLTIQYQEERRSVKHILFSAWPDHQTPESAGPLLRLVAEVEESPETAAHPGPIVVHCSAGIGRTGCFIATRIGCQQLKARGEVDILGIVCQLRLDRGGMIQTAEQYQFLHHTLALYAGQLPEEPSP

[6] = biological target: T1, Mannose-6-phosphate isomerase; test: inhibitors of human PMI, primary screen, biochemical, fluorescence intensity, coupled assay (AID 1209)
[7] = biological target: T4, Runt-related transcription factor 1/Core-binding factor subunit beta (Homo sapiens, UniProt Q01196+Q13951); test: inhibitors of RUNX1 Runt–CBFb-SMMHC binding, biochemical, TR-FRET (AID 1438); assay type: protein assay
[8] = biological target: T4, Runt-related transcription factor 1/Core-binding factor subunit beta; test: Confirmation of compounds inhibiting the binding between the RUNX1 Runt domain and CBFb-SMMHC via a fluorescence resonance energy transfer (FRET) assay. [Related pubchem assays (depositor defined):AID1434, AID1438, AID1496, AID1550, AID1645]; assay type: protein assay
[9] = biological target: T4, Runt-related transcription factor 1/Core-binding factor subunit beta; test: inhibitors of RUNX1 Runt–CBFb-SMMHC binding, primary screen, biochemical, FRET, Cerulean-Runt, Venus-CBFb-SMMHC, uHTS (AID 1434); assay type: protein assay;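 further: partner is the CBFb-SMMHC leukemia fusion protein rather than wild-type CBFb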
[10] = Vero E6 cell cytotoxicity, dose response, cytotoxicity control for non-replicating M. tuberculosis project, secondary assay (AID 492998); assay type: functional, VeroE6; conditions: Vero C1008
[11] = microbe, parasite or virus in culture; assay type: functional; conditions: Mycobacterium tuberculosis
[12] = cells; assay type: functional

T4 sequence (Q01196 whole entry, the tested form may be a part): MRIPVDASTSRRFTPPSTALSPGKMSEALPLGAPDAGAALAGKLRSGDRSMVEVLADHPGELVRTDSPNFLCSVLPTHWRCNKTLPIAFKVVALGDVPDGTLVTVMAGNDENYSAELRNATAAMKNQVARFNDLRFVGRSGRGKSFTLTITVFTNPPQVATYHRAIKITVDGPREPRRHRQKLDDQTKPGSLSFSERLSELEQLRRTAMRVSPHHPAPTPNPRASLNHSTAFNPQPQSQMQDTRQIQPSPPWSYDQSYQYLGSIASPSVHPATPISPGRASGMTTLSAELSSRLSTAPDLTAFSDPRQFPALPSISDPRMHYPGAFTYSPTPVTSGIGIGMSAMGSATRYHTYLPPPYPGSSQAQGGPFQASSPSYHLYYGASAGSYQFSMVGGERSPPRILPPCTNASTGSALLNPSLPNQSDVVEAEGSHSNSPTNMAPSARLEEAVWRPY
T4 sequence (Q13951 whole entry, the tested form may be a part): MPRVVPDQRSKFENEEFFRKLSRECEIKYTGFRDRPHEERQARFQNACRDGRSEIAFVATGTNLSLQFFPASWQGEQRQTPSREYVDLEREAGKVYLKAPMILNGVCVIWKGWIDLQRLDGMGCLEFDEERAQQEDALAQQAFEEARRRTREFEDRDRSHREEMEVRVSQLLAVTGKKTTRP
Dual specificity protein phosphatase 3, sequence (P51452 whole entry): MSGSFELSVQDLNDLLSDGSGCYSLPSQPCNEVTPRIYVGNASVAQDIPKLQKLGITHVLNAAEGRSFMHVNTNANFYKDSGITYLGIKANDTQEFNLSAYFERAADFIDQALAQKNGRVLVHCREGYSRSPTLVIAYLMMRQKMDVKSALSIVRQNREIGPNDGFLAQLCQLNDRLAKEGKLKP
Peroxisome proliferator-activated receptor gamma, sequence (P37231 whole entry): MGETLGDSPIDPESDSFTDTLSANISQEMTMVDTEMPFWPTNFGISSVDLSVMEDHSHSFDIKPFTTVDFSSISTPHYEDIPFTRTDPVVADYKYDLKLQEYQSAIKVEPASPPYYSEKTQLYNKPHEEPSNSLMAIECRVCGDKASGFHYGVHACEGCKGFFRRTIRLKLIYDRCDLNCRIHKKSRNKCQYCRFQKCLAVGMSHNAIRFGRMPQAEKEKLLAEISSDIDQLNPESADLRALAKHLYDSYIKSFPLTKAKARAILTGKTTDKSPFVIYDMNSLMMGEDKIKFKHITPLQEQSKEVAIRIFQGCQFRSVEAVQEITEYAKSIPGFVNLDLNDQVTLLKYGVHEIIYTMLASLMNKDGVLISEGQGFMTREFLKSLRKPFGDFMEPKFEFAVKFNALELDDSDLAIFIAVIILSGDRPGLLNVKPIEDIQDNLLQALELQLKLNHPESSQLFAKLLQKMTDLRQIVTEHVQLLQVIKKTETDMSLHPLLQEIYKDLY

In the case of `O=C(CSc1nc(=O)n(CCN2CCOCC2)c2c1CCCC2)Nc1cccc([N+](=O)[O-])c1`, the EC50 [1] is reported as 0.631 µM (active).

In the case of `CCOc1ccc(NC(=S)Nc2cc(C)n[nH]2)cc1`, the IC50 [2] is reported as > 100 µM (inactive), the IC50 [3] is reported as > 50 µM (inactive) and the IC50 [4] is reported as > 100 µM (inactive). The IC50 [5] was > 100 µM (inactive) and the IC50 [6] was 9.41 µM (active).

With `Cc1nc2ccc(S(=O)(=O)Nc3ccc(-c4nc5cccnc5s4)cc3)cc2s1` the IC50 [7] was > 100 µM (inactive), the IC50 [8] was 0.713 µM (active) and the IC50 [9] was 1.6 µM (active).

In the case of `Cc1cc(C)n2[nH]c(=O)c(N=Nc3cccc(C(F)(F)F)c3)c2n1`, the CC50 [10] is reported as 20 µM (active), the CC50 [11] is reported as 26.2 µM (active) and the IC50 [12] is reported as 18.7 µM (active).

— ChEMBL document CHEMBL1201862, “PubChem BioAssay data set” (2004)
